Measured values taken from publication PMC4301837, “Aldosterone synthase inhibition: cardiorenal protection in animal disease models and translation of hormonal effects to human subjects” (Journal of Translational Medicine, 2014).
Like-named read-outs stand apart in the source and are kept apart here.

How the values were obtained:
[1] = target: 11β-hydroxylase (CYP11B1), rat adrenal homogenate (Rattus norvegicus, UniProt P15393); experiment: biochemical
[2] = target: aldosterone synthase (CYP11B2), rat adrenal homogenate (Rattus norvegicus, UniProt P30099); experiment: biochemical
Chain of aldosterone synthase (CYP11B2), rat adrenal homogenate (P30099 35-510): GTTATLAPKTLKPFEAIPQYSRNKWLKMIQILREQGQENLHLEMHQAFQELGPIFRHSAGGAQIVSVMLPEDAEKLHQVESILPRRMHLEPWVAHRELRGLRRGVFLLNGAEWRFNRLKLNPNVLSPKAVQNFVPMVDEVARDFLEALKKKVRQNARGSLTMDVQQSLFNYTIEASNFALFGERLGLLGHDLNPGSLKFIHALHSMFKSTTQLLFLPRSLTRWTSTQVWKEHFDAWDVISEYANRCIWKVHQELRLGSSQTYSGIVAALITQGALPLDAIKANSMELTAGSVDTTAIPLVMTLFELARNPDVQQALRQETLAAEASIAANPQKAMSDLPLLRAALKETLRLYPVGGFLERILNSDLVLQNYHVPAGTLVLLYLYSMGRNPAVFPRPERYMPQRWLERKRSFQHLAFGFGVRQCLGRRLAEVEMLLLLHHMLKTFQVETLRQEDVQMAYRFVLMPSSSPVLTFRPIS

[3] = tested on: ACTH-stimulated aldosterone and corticosterone synthesis; experiment: animal or person; conditions: Rattus norvegicus; for ED50: po
[4] = tested on: dTG rats overexpressing human renin and angiotensinogen; experiment: Survival study in young dTG rats; assay type: in vivo, rat
[5] = tested on: patients with Cushing’s disease; conditions: 12 patients, 2–50 mg twice daily, cited from earlier work
[6] = tested on: healthy male volunteers; experiment: Human safety and tolerability; assay type: in vivo
[7] = in vivo; conditions: male, Sprague-Dawley, rat, plasma, po
[8] = tested on: ACTH-stimulated aldosterone and corticosterone synthesis; conditions: rat, ACTH stimulation
[9] = target: recombinant human 11β-hydroxylase (CYP11B1) (Homo sapiens, UniProt P15538); conditions: Lineweaver–Burk plots; at higher concentrations
Chain of recombinant human 11β-hydroxylase (CYP11B1) (P15538 25-503): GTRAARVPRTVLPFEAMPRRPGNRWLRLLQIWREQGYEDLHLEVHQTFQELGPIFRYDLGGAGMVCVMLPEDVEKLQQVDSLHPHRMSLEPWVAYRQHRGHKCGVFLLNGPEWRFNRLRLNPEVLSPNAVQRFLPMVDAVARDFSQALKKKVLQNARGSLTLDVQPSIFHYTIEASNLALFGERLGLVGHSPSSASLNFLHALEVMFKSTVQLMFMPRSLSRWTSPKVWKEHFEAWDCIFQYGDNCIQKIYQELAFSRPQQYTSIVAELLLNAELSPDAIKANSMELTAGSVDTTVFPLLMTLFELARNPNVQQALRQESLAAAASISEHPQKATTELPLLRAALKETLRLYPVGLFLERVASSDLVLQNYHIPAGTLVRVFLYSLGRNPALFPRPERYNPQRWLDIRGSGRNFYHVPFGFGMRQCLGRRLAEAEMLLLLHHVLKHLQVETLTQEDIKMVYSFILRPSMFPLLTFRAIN

[10] = tested on: ACTH-stimulated plasma aldosterone and cortisol; experiment: animal or person; conditions: Macaca fascicularis
[11] = target: aldosterone synthase (CYP11B2), monkey adrenal homogenate (Macaca fascicularis, UniProt A0A2K5UPL9); experiment: biochemical
Chain of aldosterone synthase (CYP11B2), monkey adrenal homogenate (A0A2K5UPL9 1-503): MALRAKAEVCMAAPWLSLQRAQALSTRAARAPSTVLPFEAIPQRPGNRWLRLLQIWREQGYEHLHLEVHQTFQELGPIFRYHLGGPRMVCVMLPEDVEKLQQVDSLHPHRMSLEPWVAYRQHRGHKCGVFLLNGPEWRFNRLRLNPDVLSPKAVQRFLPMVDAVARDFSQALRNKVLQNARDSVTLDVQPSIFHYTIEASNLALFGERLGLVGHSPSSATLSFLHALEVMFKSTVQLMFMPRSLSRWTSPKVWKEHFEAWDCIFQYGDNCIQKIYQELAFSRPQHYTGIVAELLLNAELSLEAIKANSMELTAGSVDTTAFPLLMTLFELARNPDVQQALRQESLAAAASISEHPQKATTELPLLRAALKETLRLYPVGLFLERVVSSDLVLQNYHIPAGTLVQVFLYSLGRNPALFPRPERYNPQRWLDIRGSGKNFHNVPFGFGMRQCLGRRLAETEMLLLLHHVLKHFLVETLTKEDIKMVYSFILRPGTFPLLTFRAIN

[12] = tested on: Ang-II-stimulated aldosterone synthesis; experiment: animal or person; conditions: Rattus norvegicus, po, read-out: ED50 for inhibiting Ang-II-stimulated aldosterone response
[13] = rat, over the tested dose range
[14] = dogs, ref D. Rigel, personal communication, cited from earlier work
[15] = human, 0.5–3 mg once daily oral
[16] = monkey, 15–150 μg/kg
[17] = tested on: healthy male volunteers
[18] = target: recombinant rat aldosterone synthase (CYP11B2) (Rattus norvegicus, UniProt P30099); experiment: biochemical
Chain of recombinant rat aldosterone synthase (CYP11B2) (P30099 35-510): as the sequence (P30099 35-510) above

[19] = in vitro; conditions: human, plasma
[20] = in vivo; conditions: male, cynomolgus monkey, plasma, po
[21] = tested on: dTG rats overexpressing human renin and angiotensinogen; assay type: in vivo; conditions: dTG rats, LCI699 3–100 mg/kg/day
[22] = in vitro; conditions: monkey, plasma
[23] = tested on: human CYP11B2; parameters: method as in PMID 24899257; conditions: recombinant hamster fibroblasts expressing human CYP11B1 and CYP11B2; read-out: IC50, inhibition of aldosterone synthesis; cited from earlier work
[24] = target: recombinant rat 11β-hydroxylase (CYP11B1) (Rattus norvegicus, UniProt P15393); experiment: biochemical
Chain of recombinant rat 11β-hydroxylase (CYP11B1) (P15393 25-499): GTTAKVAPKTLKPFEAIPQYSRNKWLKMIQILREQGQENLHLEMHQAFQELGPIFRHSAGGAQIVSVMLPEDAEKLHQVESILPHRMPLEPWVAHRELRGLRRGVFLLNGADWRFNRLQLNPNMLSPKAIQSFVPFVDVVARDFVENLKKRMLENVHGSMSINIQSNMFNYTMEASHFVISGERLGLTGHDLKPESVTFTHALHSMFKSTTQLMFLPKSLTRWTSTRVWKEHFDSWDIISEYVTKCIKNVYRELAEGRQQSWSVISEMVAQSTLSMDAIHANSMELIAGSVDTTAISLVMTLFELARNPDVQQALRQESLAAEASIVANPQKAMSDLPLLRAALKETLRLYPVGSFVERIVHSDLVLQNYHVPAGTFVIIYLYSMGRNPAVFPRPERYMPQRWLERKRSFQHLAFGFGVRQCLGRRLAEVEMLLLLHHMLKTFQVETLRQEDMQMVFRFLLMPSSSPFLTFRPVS

Chain of 11β-hydroxylase (CYP11B1), rat adrenal homogenate (P15393 25-499): as above

N#Cc1ccc([C@H]2CCc3cncn32)c(F)c1 [LCI699]
IC50 [1]: 3.05 µM | IC50 [2]: 802 nM | ED50 ([3]; read-out: ED50 for inhibiting ACTH-stimulated aldosterone): 1.1 mg/kg | ED50 ([3]; read-out: ED50 for inhibiting ACTH-stimulated corticosterone): 73 mg/kg | EC50 ([3]; read-out: EC50 for inhibiting ACTH-stimulated aldosterone): 0.771 µM | EC50 ([3]; read-out: EC50 for inhibiting ACTH-stimulated corticosterone): 36 µM | doses at which survival was significantly prolonged ([4]; young dTG rats without established cardiorenal disease, P < 0.01): ≥ 10 mg/kg/day | maximum median survival time ([4]; young dTG rats, dose–median survival curves): 9.5 weeks | patients with urinary free cortisol below upper limit of normal ([5]; 70 days): 11 patients | tolerability [5]: well tolerated | subjects with plasma sodium levels at or below 135 mmol/L ([6]; LCI699 0.5 mg, multiple-dose phase): two | subjects with pre-specified markers of hypoaldosteronism (mild hyponatremia, postural tachycardia, decreased body weight), discontinued ([6]; LCI699 3 mg, multiple-dose): three | subjects with plasma sodium levels at or below 135 mmol/L ([6]; LCI699 3 mg, multiple-dose phase): four | tolerability ([6]; healthy subjects, single doses up to 200 mg, multiple doses): well tolerated | adverse events considered severe (abnormal ACTH-stimulation test) ([6]; multiple-dose phase, LCI699 10 mg): only one adverse event | changes in supine systolic or diastolic blood pressure or heart rate compared with placebo ([6]; single or multiple doses): no consistent changes | half-life [7]: 120 to 300 min | dose above which inhibition of stimulated plasma aldosterone shows an apparent plateau ([8]; oral): > 10 mg/kg | Maximal reduction in plasma aldosterone from baseline ([8]; approximately 2 h after oral dosing): 80% | mode of inhibition of 11β-hydroxylase [9]: reversible competitive inhibitor | ED50 ([10]; po, read-out: ED50 for inhibition of ACTH-stimulated plasma aldosterone): 0.013 mg/kg | EC50 ([10]; read-out: EC50 for inhibition of ACTH-stimulated plasma aldosterone): < 1 nM | IC50 [11]: 12 ± 1 nM | ED50 [12]: 0.6 mg/kg | dose proportionality of pharmacokinetics [13]: dose-proportional | oral bioavailability ([14]; 1 mg/kg oral dose): 96% | half-life [14]: 36 to 216 min | Tmax [15]: 1.00 to 1.25 h | dose proportionality of pharmacokinetics [16]: dose-proportional | plateau of maximal inhibition of plasma aldosterone ([17]; at the 10 mg single dose, no further reduction up to 200 mg): approximately 80% | increase in 11-deoxycortisol ([17]; single dose 100 mg): 942% | increase in 11-deoxycortisol ([17]; single dose 200 mg): 584% | decrease in plasma cortisol ([17]; single dose 200 mg, 24 h post-dose, P = 0.029 vs placebo): 19% | effect on plasma cortisol ([17]; single doses 3–100 mg): did not significantly alter | reductions in 24-h urinary cortisol ([17]; single doses of 30, 100 or 200 mg): 34–42% | IC50 [18]: 160 ± 9 nM | fraction unbound [19]: 0.734 | Tmax [20]: 0.9 to 3.5 h | half-life [20]: 60 to 120 min | effect on urinary corticosterone excretion [21]: reduced | effect on LV fractional shortening ([21]; eplerenone 30 mg/kg): dose-dependently increased | effect on myocardial cell size ([21]; eplerenone 30 mg/kg): normalized | effect on BUN levels ([21]; eplerenone 30 mg/kg/day): dose-dependently normalized | effect on mean arterial pressure ([21]; eplerenone 30 mg/kg/day): neither LCI699 nor eplerenone normalized arterial pressure | effect on serum potassium ([21]; eplerenone 30 mg/kg/day): corrected serum potassium in a dose-dependent manner | effect on urinary albumin excretion ([21]; eplerenone 30 mg/kg/day): dose-dependently normalized | effect on urinary aldosterone excretion ([21]; eplerenone 30 mg/kg/day): reduced | effect on urine output ([21]; eplerenone 30 mg/kg/day): dose-dependently normalized | effect on LV weight ([21]; eplerenone 30 mg/kg, data not shown): reduced | effect on water intake ([21]; data not shown): dose-dependently normalized | fraction unbound [22]: 0.734 | IC50 [23]: […] | IC50 [24]: 410 ± 5 nM
